According to patent US5055396A, “Diagnostic methods and systems for quantifying APO AI” (Scripps Clinic and Research Foundation, priority 1987, dated 1991):

Target: MAB AI-18
Assay: Competitive RIA: inhibition of MAB AI-18 binding to solid-phase Apo AI/HDL by competitor antigen or peptide
Set-up: species or system mouse
Conditions: for Immunoreactivity (concentration of peptide competitor required to achieve a B/Bo value of 0.5): competitive RIA, MAB AI-18 ascites 1:1.25×10^5, solid-phase Apo AI/HDL; for ability of the peptide to immunologically mimic a native conserved epitope of Apo AI: FIG. 5, proline 99 deleted or substituted by glycine; for expression of the epitope recognized by MAB AI-18 after NaOH treatment: NaOH treated Apo AI/HDL, 18 hours at about 20 degrees C; for B/Bo: background-adjusted; for immunoreactivity values (in words): higher value represents a lower affinity
Method: One hundred ul of PBS (0.15M NaCl, 0.01M NaPO4, pH 7.2) containing 10 ug/ml Apo AI/HDL were admixed to the wells of microtiter plates. The plates were maintained for 1 hour at 20 degrees C. on a rotating platform to allow the Apo AI/HDL to adhere to the wells and form solid supports. After aspirating excess liquid from the wells, 200 ul of block solution (3% BSA, 3% NGS in PBS) was admixed to each well, and the wells were maintained for 30 minutes at 20 degrees C. on a rotating platform. Subsequently, the blocking solution was removed by aspiration and the wells were washed 3 times with SPRIA buffer.
In control wells either competing antigen or antibody was replaced by PBS containing 3% BSA.
The immunoreaction admixtures were maintained about 16 hours at 4 degrees C. on a rotating platform to permit formation of solid-phase immunoreaction products. […] The labeling immunoreaction admixtures so formed were maintained for 4 hours at 4 degrees C. on a rotating platform.
[…] of serial 3 fold dilutions of each sample prepared in Table 3 were admixed as competitor in the RIA described in this Example.
Fifty microliters of the stock of 2 fold serial dilutions of the stock were used as competitor in the RIA described in this Example.

Row | Substance | Immunoreactivity (concentration of peptide competitor required to achieve a B/Bo value of 0.5) | ability of the peptide to immunologically mimic a native conserved epitope of Apo AI | expression of the epitope recognized by MAB AI-18 after NaOH treatment | CPM of 125I-labeled solid phase immunoreaction product (competitor dilution 1:3) | B/Bo (competitor dilution 1:3) | CPM of 125I-labeled solid phase immunoreaction product (competitor dilution 1:9) | B/Bo (competitor dilution 1:9) | CPM of 125I-labeled solid phase immunoreaction product (competitor dilution 1:27) | B/Bo (competitor dilution 1:27) | CPM of 125I-labeled solid phase immunoreaction product (competitor dilution 1:81) | B/Bo (competitor dilution 1:81) | CPM of 125I-labeled solid phase immunoreaction product (competitor dilution 1:243) | B/Bo (competitor dilution 1:243) | CPM of 125I-labeled solid phase immunoreaction product (competitor dilution 1:729) | B/Bo (competitor dilution 1:729) | CPM of 125I-labeled solid phase immunoreaction product (competitor dilution Neat) | B/Bo (competitor dilution Neat) | immunoreactivity values (in words) | slope of logit transformed competition data (competitor HDL or fresh plasma, FIG. 2)
1 | LEEVKAKVQPYLDDFQKKWQEE [AI90-111] | 9 ug protein/ml |  |  |  |  |  |  |  |  |  |  |  |  |  |  |  |  |  | 
2 | AKVQYLDDFQ [AI95-105 (-P)] | > 10,000 ug protein/ml | substantially decreases the ability of the peptide to immunologically mimic a native conserved epitope |  |  |  |  |  |  |  |  |  |  |  |  |  |  |  |  | 
3 | B: NaOH treated Apo AI/HDL, 5 ul 0.01N NaOH, pH 6.34 |  |  | stable to NaOH treatments | 2852 CPM | 0.341 | 4399 CPM | 0.540 | 6195 CPM | 0.771 | 6988 CPM | 0.872 | 7483 CPM | 0.936 | 7406 CPM | 0.926 | 1110 CPM | 0.118 |  | 
4 | F: NaOH treated Apo AI/HDL, 50 ul 1N NaOH, pH 11.86 |  |  | decrease in expression of the epitope | 185 CPM | -.001 | 281 CPM | 0.011 | 342 CPM | 0.019 | 516 CPM | 0.041 | 744 CPM | 0.071 | 1295 CPM | 0.141 | 222 CPM | 0.004 |  | 
5 | D: NaOH treated Apo AI/HDL, 5 ul 1N NaOH, pH 10.67 |  |  | decrease in expression of the epitope | 1174 CPM | 0.126 | 2746 CPM | 0.328 | 3854 CPM | 0.470 | 5220 CPM | 0.645 | 6385 CPM | 0.795 | 6917 CPM | 0.863 | 589 CPM | 0.051 |  | 
6 | YLDDFQ (UniProt P02647 124-129, looked up, fragment) [AI100-105] | > 10,000 ug protein/ml |  |  |  |  |  |  |  |  |  |  |  |  |  |  |  |  | high immunoreactivity values | 
7 | AKVQGYLDDFQ [AI95-105 (G/P)] | > 10,000 ug protein/ml | substantially decreases the ability of the peptide to immunologically mimic a native conserved epitope |  |  |  |  |  |  |  |  |  |  |  |  |  |  |  |  | 
8 | Apo AI/HDL: Apo AI when it is present on HDL particles [reference compound] |  |  |  | 2348 CPM | 0.277 | 3778 CPM | 0.460 | 5057 CPM | 0.624 | 5868 CPM | 0.729 | 6380 CPM | 0.794 | 6679 CPM | 0.833 | 1152 CPM | 0.123 |  | -2.03
9 | SKDLEEVKAKVQPYLDDFQ [AI87-105] | 10 ug protein/ml |  |  |  |  |  |  |  |  |  |  |  |  |  |  |  |  |  | 
10 | Sample A: Apo AI/HDL, no NaOH treatment control, pH 6.26 [reference compound] |  |  |  | 2542 CPM | 0.301 | 4799 CPM | 0.527 | 5786 CPM | 0.718 | 6745 CPM | 0.841 | 7270 CPM | 0.090 | 7255 CPM | 0.907 | 965 CPM | 0.099 |  | 
11 | C: NaOH treated Apo AI/HDL, 50 ul 0.01N NaOH, pH 7.04 |  |  | stable to NaOH treatments | 2479 CPM | 0.293 | 4502 CPM | 0.553 | 6005 CPM | 0.746 | 6618 CPM | 0.825 | 7277 CPM | 0.909 | 7485 CPM | 0.936 | 1070 CPM | 0.112 |  | 
12 | KVQPYL (UniProt P02647 120-125, looked up, fragment) [AI96-101] | > 10,000 ug protein/ml |  |  |  |  |  |  |  |  |  |  |  |  |  |  |  |  |  | 
13 | QKKWQEEMELYR [AI105-116] | > 10,000 ug protein/ml |  |  |  |  |  |  |  |  |  |  |  |  |  |  |  |  | high immunoreactivity values | 
14 | G: NaOH treated Apo AI/HDL, 250 ul 1N NaOH, pH 12.85 |  |  | decrease in expression of the epitope | 305 CPM | 0.016 | 339 CPM | 0.019 | 497 CPM | 0.039 | 771 CPM | 0.074 | 1157 CPM | 0.124 | 1891 CPM | 0.218 | 195 CPM | 0.000 |  | 
15 | SKDLEEVKAKVQPYL [AI87-101] | 8,400 ug protein/ml |  |  |  |  |  |  |  |  |  |  |  |  |  |  |  |  | high immunoreactivity values | 
16 | VKAKVQPYL [AI93-101] | > 10,000 ug protein/ml |  |  |  |  |  |  |  |  |  |  |  |  |  |  |  |  | high immunoreactivity values | 
17 | E: NaOH treated Apo AI/HDL, 15 ul 1N NaOH, pH 11.33 |  |  | decrease in expression of the epitope | 553 CPM | 0.046 | 881 CPM | 0.088 | 1543 CPM | 0.173 | 2283 CPM | 0.268 | 3338 CPM | 0.404 | 4918 CPM | 0.607 | 263 CPM | 0.009 |  | 
18 | AKVQPYLDDFQ [AI95-105] | 45 ug protein/ml |  |  |  |  |  |  |  |  |  |  |  |  |  |  |  |  |  | 
19 | LDDFQKKWQEE [AI101-111] | > 10,000 ug protein/ml |  |  |  |  |  |  |  |  |  |  |  |  |  |  |  |  | high immunoreactivity values | 
